Laboratory results from patent publication US7705188B2 (Arizona Board of Regents, a body corporate of the State of …, priority 2002, dated 2010).
≈ marks a conversion by molar mass, not a printed value. Like-named read-outs stand apart in the source and are kept apart here.

Assays:
[1] = test system: human leukemia HL-60 cell line; details: cited from earlier work
Cryptococcus neoformans = experiment: Antimicrobial broth microdilution, MIC; assay type: cell-based; details: read-out: Minimum inhibitory concentration
From the text: (§1) Stilbene production has been correlated with the resistance of grape leaves to fungal infection.

Neisseria gonorrhoeae = experiment: Antimicrobial broth microdilution, MIC; assay type: cell-based
From the text: as §1

Escherichla coli = experiment: Antimicrobial broth microdilution, MIC; assay type: cell-based; details: read-out: Minimum inhibitory concentration
From the text: as §1

Staphylococcus aureus = experiment: Antimicrobial broth microdilution, MIC; assay type: cell-based; details: read-out: Minimum inhibitory concentration
From the text: as §1

Streptococcus pneumoniae = experiment: Antimicrobial broth microdilution, MIC; assay type: cell-based; details: read-out: Minimum inhibitory concentration
From the text: as §1

Candida albicans = experiment: Antimicrobial broth microdilution, MIC; assay type: cell-based; details: read-out: Minimum inhibitory concentration
From the text: as §1

Micrococcus luteus = experiment: Antimicrobial broth microdilution, MIC; assay type: cell-based; details: read-out: Minimum inhibitory concentration
From the text: as §1

[2] = test system: Stenotrophomonas maltophilia; experiment: Antimicrobial broth microdilution, MIC; assay type: cell-based; details: read-out: Minimum inhibitory concentration
From the text: as §1

Enterococcus faecalis = experiment: Antimicrobial broth microdilution, MIC; assay type: cell-based; details: for MIC: read-out: Minimum inhibitory concentration
From the text: as §1

Enterobacter cloacae = experiment: Antimicrobial broth microdilution, MIC; assay type: cell-based; details: read-out: Minimum inhibitory concentration
From the text: as §1

DU-145 = experiment: Cytotoxicity, prostate DU-145; assay type: cell-based, human
BXPC-3 = experiment: Cytotoxicity, pancreas-a BXPC-3; assay type: cell-based, human
NCI-H460 = experiment: Cytotoxicity, lung-NSC NCI-H460; assay type: cell-based, human
SF-268 = experiment: Cytotoxicity, CNS SF-268; assay type: cell-based, human
tubulin [3] = experiment: Inhibition of [3H]colchicine binding to tubulin; details: for Inhibition of colchicine binding % Inhibition, 2 μM inhibitor / Inhibition of colchicine binding % Inhibition, 5 μM inhibitor: tubulin 1.0 μM, [3H]colchicine 5.0 μM, 10 min at 37° C.
Protocol: (§2) Extent of assembly after 20 min at 30° C. was the parameter measured. The colchicine binding assay was performed as earlier reported.^27 The tubulin concentration was 1.0 μM, the [3H] colchicine concentration was 5.0 μM, and the potential inhibitor concentrations were as indicated. Binding of colchicine was measured following a 10 min incubation at 37° C.

tubulin [4] = experiment: Inhibition of tubulin polymerization; assay type: biochemical; details: for IC50: tubulin 10 μM, extent of assembly after 20 min at 30° C., read-out: Inhibition of tubulin Polymerization IC50 (μM) ± SD; for Inhibition of tubulin assembly, in words: direct comparison with 2a and 2c
Protocol: as §2

KM201.2 = experiment: Cytotoxicity, colon KM201.2; assay type: cell-based, human; details: KM201.2
[5] = test system: murine CaNT adenocarcinoma; details: six hours after single i.p. injection, 100 mg/kg; cited from earlier work
MCF-7 = experiment: Cytotoxicity, breast MCF-7; assay type: cell-based, human; details: Homo sapiens, MCF7
bacteria and fungi = experiment: Antimicrobial evaluation, summary; assay type: cell-based
From the text: as §1

[6] = test system: P-388 and human tumor cell lines; experiment: Cytotoxicity, summary over P-388 and human tumor cell lines; assay type: cell-based
[7] = Neisseria gonorrhoeae; read-out: Minimum inhibitory concentration

Row | MIC (Neisseria gonorrhoeae; [7]) [µg/mL] | MIC (Escherichla coli; Escherichla coli) [µg/mL] | MIC (Enterococcus faecalis; first line (r12)) [µg/mL] | MIC (Enterococcus faecalis; second line (r15)) [µg/mL] | SMILES | MIC (Cryptococcus neoformans) [µg/mL] | MIC (Staphylococcus aureus) [µg/mL] | MIC (Streptococcus pneumoniae) [µg/mL] | MIC (Candida albicans) [µg/mL] | MIC (Micrococcus luteus) [µg/mL] | MIC [2] [µg/mL] | MIC (Enterobacter cloacae) [µg/mL] | Prostate DU-145 GI50 (DU-145) [ng/mL] | Pancreas-a BXPC-3 GI50 (BXPC-3) [µg/mL] | Lung-NSC NCI-H460 GI50 (NCI-H460) [ng/mL] | CNS SF-268 GI50 (SF-268) [ng/mL] | Inhibition of colchicine binding % Inhibition, 2 μM inhibitor (tubulin [3]) [%] | IC50 (tubulin [4]) [µM] | Inhibition of colchicine binding, in words (tubulin [3]) | Inhibition of colchicine binding % Inhibition, 5 μM inhibitor (tubulin [3]) [%] | Inhibition of tubulin assembly, in words (tubulin [4]) | also measured
1 | 16 to 32 (≈ 70.1 to 140 µM) | > 64 | > 64 | > 64 | Oc1ccc(/C=C/c2cc(O)cc(O)c2)cc1 [Compound 1, 3,4′,5-trihydroxy-trans-stilbene, reference compound] | > 64 | > 64 | > 64 | > 64 | > 64 | > 64 | > 64 |  |  |  |  |  |  |  |  |  | Apoptosis and Bcl-2 expression [1]: induce apoptosis and decrease expression of Bcl-2; Activity against Neisseria gonorrhoeae, in words (Neisseria gonorrhoeae; broth microdilution assays): demonstrated
2 |  |  |  |  | COc1ccc(/C=C\c2cc(OC)c(OC)c(OC)c2)cc1O [Compound 2a, combretastatin A-4, reference compound] |  |  |  |  |  |  |  | 0.8 | 0.39 | 0.6 | >10 | 91 | 2 ± 0.2 |  |  |  | Colon KM201.2 GI50 (KM201.2): 0.34 µg/mL
3 |  |  |  |  | COc1ccc(/C=C\c2cc(OC)c(OC)c(OC)c2)cc1OP(=O)([O-])[O-].[Na+].[Na+] [Compound 2b, combretastatin A-4 sodium phosphate prodrug] |  |  |  |  |  |  |  |  |  |  |  |  |  |  |  |  | Tumor vascular function shutdown [5]: rapid, irreversible and extensive
4 |  |  |  |  | COc1ccc(C=Cc2cc(OC)cc(OC)c2)cc1 [Compound 4a, 3,4′,5-trimethoxystilbene] | > 64 | > 64 | > 64 | > 64 | > 64 | > 64 | > 64 | 5.4 | 0.0034 | 2.8 | 4.4 | 88 ± 1 | 1.8 ± 0.3 | essentially equivalent to 2a | 95 ± 1 | more inhibitory than 2a | MIC (Neisseria gonorrhoeae; Neisseria gonorrhoeae, read-out: Minimum inhibitory concentration): > 64 µg/mL; MIC (Escherichla coli): > 64 µg/mL; MIC (Enterococcus faecalis): > 64 µg/mL; Minimum inhibitory concentration (Enterococcus faecalis; second line (r15)): * (no inhibition at 64 μg/ml)
5 | 32 (≈ 118 µM) | > 64 | > 64 | > 64 | COc1ccc(C(=O)c2cc(OC)cc(OC)c2)cc1 [Compound 16a, 3,4′,5-trimethoxybenzophenone] | > 64 | > 64 | > 64 | > 64 | > 64 | > 64 | > 64 |  |  |  |  | 47 ± 5 | 2.6 ± 0.3 | least activity in both assays | 69 ± 0.3 | somewhat less potent than 2c | GI50 (MCF-7): 21.7 µg/mL (≈ 79.7 µM); melting point: 90.3 to 91.6 °C; Cytotoxicity against cancer cell lines, comparison in words [6]: superior in activity to resveratrol (1); Fold less active (cytotoxicity) than compound 4a ([6]; relative to 4a): 10-100 fold

Row | SMILES | MIC (Neisseria gonorrhoeae; [7]) [µg/mL] | MIC (Escherichla coli; Escherichla coli) [µg/mL] | MIC (Enterococcus faecalis; first line (r12)) [µg/mL] | MIC (Enterococcus faecalis; second line (r15)) [µg/mL] | MIC (Cryptococcus neoformans) [µg/mL] | MIC (Staphylococcus aureus) [µg/mL] | MIC (Streptococcus pneumoniae) [µg/mL] | MIC (Candida albicans) [µg/mL] | MIC (Micrococcus luteus) [µg/mL] | MIC [2] [µg/mL] | MIC (Enterobacter cloacae) [µg/mL] | Prostate DU-145 GI50 (DU-145) [ng/mL] | Pancreas-a BXPC-3 GI50 (BXPC-3) [µg/mL] | Lung-NSC NCI-H460 GI50 (NCI-H460) [ng/mL] | CNS SF-268 GI50 (SF-268) [ng/mL] | Inhibition of colchicine binding % Inhibition, 2 μM inhibitor (tubulin [3]) [%] | IC50 (tubulin [4]) [µM] | Inhibition of colchicine binding, in words (tubulin [3]) | Inhibition of colchicine binding % Inhibition, 5 μM inhibitor (tubulin [3]) [%] | Inhibition of tubulin assembly, in words (tubulin [4]) | also measured
6 | COc1cc(C=Cc2ccc(O)cc2)cc(OC)c1 [Compound 14c, 3,5-dimethoxy-4′-hydroxy-stilbene] | 8 (≈ 31.2 µM) | > 64 | 32 to 64 (≈ 125 to 250 µM) | > 64 | 16 (≈ 62.4 µM) | 32 (≈ 125 µM) | 16 (≈ 62.4 µM) | 64 (≈ 250 µM) | 8 (≈ 31.2 µM) | > 64 | > 64 |  |  |  |  |  | 29 ± 9 |  |  |  | GI50 (DU-145; Homo sapiens, DU-145, DU-145): 2.3 µg/mL (≈ 8.97 µM); GI50 (BXPC-3; Homo sapiens, BXPC-3, BXPC-3): 12.6 µg/mL (≈ 49.2 µM); GI50 (NCI-H460; Homo sapiens, NCI-H460, NCI-H460, read-out: Lung-NSC NCI-H460 GI50): 2.8 µg/mL (≈ 10.9 µM); GI50 (SF-268; Homo sapiens, SF-268, SF-268, read-out: CNS SF-268 GI50): 2.2 µg/mL (≈ 8.58 µM); GI50 (MCF-7): 3 µg/mL (≈ 11.7 µM); Antimicrobial activity, in words (bacteria and fungi): most active of the stilbenes and benzophenones tested; Cytotoxicity against cancer cell lines, comparison in words [6]: comparable to that of resveratrol; Fold less active than 4a as inhibitor of tubulin assembly (tubulin [4]; relative to 4a): 16 fold; GI50 (KM201.2; Homo sapiens, read-out: Colon KM201.2 GI50): 11.9 µg/mL (≈ 46.4 µM)
